The results in this text go back to patent publication US20240173317A1, “METHODS FOR TREATING PROGRESSIVE FAMILIAL INTRAHEPATIC CHOLESTASIS” (MIRUM PHARMACEUTICALS, INC., priority 2022, published 2024).

The test system of the assay is subjects with PFIC. The experiment in a line: EDQ(Obs) sleep disturbance score, MARCH-PFIC Phase 3 study. Particulars: All-PFIC; FIG. 27D. The class given is in vivo, human. The text has this:
The terms “EDQ(Obs)”, “EDQ(Pt)”, and “EDQ” as used herein, refer to Exploratory Diary Questionnaire that are used to assess pruritus in children under the age of 18 or adults of at least 18 years of age. EDQ is a caregiver/patient reported outcome measure administered as a twice daily electronic diary. EDQ contained a question about sleep related to pruritus: “because of itch, my child had trouble staying asleep. 1—Never, 2—Rarely, 3—ometimes, 4—Often, or 5—Almost Always.” Caregivers for all subjects aged <9 years completed the Observer instrument: EDQ(Obs). Subjects ≥9 years of age completed the patient instrument: EDQ(Pt). EDQ includes questions on sleep disturbances related to pruritus.
Exploratory Diary Questionnaire. Pruritus was assessed using the EDQ caregiver/patient reported outcome measure administered as a twice daily electronic diary. […] Pruritus was assessed and recorded twice daily by subjects or caregivers, via EDQ, beginning with the day after the screening visit and every day throughout the duration of the study, as described in Table 2.
Methods: Participants were randomized to receive MRX 570 μg/kg BID or placebo (PBO) (FIG. 27A). The primary analysis evaluated pruritus as assessed by the caregiver using ItchRO(Obs) 0-4 scale; as well as by physician using the Clinician Scratch Scale (CSS). Sleep was assessed using the Exploratory Diary Questionnaire (Observer) (EDQ[Obs]). […]

With `CCCCC1(CCCC)CS(=O)(=O)c2ccc(N(C)C)cc2[C@@H](c2ccc(OCc3ccc(C[N+]45CCN(CC4)CC5)cc3)cc2)[C@H]1O` [maralixibat, 1-(4-((4-((4R,5R)-3,3-dibutyl-7-(dimethylamino)-4-hydroxy-1,1-dioxido-2,3,4,5-tetrahydrobenzo[b]thiepin-5-yl)phenoxy)methyl)benzyl)-1,4-diazabicyclo[2.2.2]octan-1-ium], the “CFB in sleep (EDQ(Obs)), difference MRX vs PBO, delta [95% CI]” value is listed as “significant improvements”.
